In US5232912A, “Anticoagulant peptides” (Merrell Dow Pharmaceuticals Inc., priority 1992, dated 1993):

Molecular target: T1, bovine thrombin (Bos taurus, UniProt P00735)
T1 construct: A bovine thrombin solution (50 ul; 0.2 pmol; Sigma); purchased Sigma
Assay: Fibrin clot inhibition assay
Type: biochemical
Parameters: unit not given here
Details: bovine thrombin 0.2 pmol, 10 minute incubation at 24° C., 1:10 diluted human plasma, turbidity (A405); two-fold delay of fibrin clot present at 15 minutes in the control well
Experimental: Human plasma was collected in EDTA (final concentration=0.1%) from a healthy volunteer who had fasted for 12 hours. The plasma was immediately sterilized by passing it through a 0.2 u filter membrane (Gelman) then aliquoted into 1 ml portions and stored at -20° C. In all assays, unsulfated Nα-acetylhirudin 45-65 was included as a control. A bovine thrombin solution (50 ul; 0.2 pmol; Sigma) was added to the wells of a 96 well microtiter plate (Falcon) containing 50 ul of a solution and a 10 minute incubation at 24° C., 100 ul of 1:10 diluted human plasma in 0.12M sodium chloride, 0.01M sodium phosphate, 0.01% sodium azide, 0.1% bovine serum albumin (pH 7.4) was added. The mixture was agitated for 20 seconds and the turbidity (A405) of the solution was measured at 5 minute intervals by an autoreader (Bio-Tek Model EL 309). Reported is the ability of a 5 uM concentration of peptide to delay two-fold the amount of fibrin clot present at 15 minutes in the control well.

Q: For `CC[C@H](C)[C@H](NC(=O)[C@@H]1CCCN1C(=O)[C@H](CCC(=O)O)NC(=O)[C@H](Cc1ccc(O)cc1)NC(=O)CCC(=O)O)C(=O)N1CCCC[C@H]1C(=O)N[C@@H](CCC(=O)O)C(=O)N[C@@H](CCC(=O)O)C(=O)N[C@@H](C)C(=O)N[C@@H](CC1CCCCC1)C(=O)N[C@H](CCC(=O)O)C(=O)O` [Example 1, Suc-Tyr-Glu-Pro-Ile-Pip-Glu-Glu-Ala-Cha-D-Glu-OH], which “Fibrin Clot Inhibition” value is on record?
A: 0.88

Q: How did the “Fibrin Clot Inhibition” value turn out when `CC[C@H](C)[C@H](NC(=O)[C@@H]1Cc2ccccc2CN1C(=O)[C@H](CCC(=O)O)NC(=O)[C@H](Cc1ccc(O)cc1)NC(=O)CCC(=O)O)C(=O)N1CCC[C@H]1C(=O)N[C@@H](CCC(=O)O)C(=O)N[C@@H](CCC(=O)O)C(=O)N[C@@H](C)C(=O)N[C@@H](CC1CCCCC1)C(=O)N[C@H](CCC(=O)O)C(=O)O` [Example 5, Suc-Tyr-Glu-Tiq-Ile-Pro-Glu-Glu-Ala-Cha-D-Glu-OH] was run?
A: 0.82

Q: How did the “Fibrin Clot Inhibition” value turn out when `CC[C@H](C)[C@H](NC(=O)[C@@H]1CCCN1C(=O)[C@H](CCC(=O)O)NC(=O)[C@H](Cc1ccc(O)cc1)NC(=O)CCC(=O)O)C(=O)N1Cc2ccccc2C[C@H]1C(=O)N[C@@H](CCC(=O)O)C(=O)N[C@@H](CCC(=O)O)C(=O)N[C@@H](C)C(=O)N[C@@H](CC1CCCCC1)C(=O)N[C@H](CCC(=O)O)C(=O)O` [Example 6, Suc-Tyr-Glu-Pro-Ile-Tiq-Glu-Glu-Ala-Cha-D-Glu-OH] was run?
A: 0.63

Q: For `CC[C@H](C)[C@H](NC(=O)[C@@H]1CCCCN1C(=O)[C@H](CCC(=O)O)NC(=O)[C@H](Cc1ccc(O)cc1)NC(=O)CCC(=O)O)C(=O)N1CCC[C@H]1C(=O)N[C@@H](CCC(=O)O)C(=O)N[C@@H](CCC(=O)O)C(=O)N[C@@H](C)C(=O)N[C@@H](CC1CCCCC1)C(=O)N[C@H](CCC(=O)O)C(=O)O` [Example 2, Suc-Tyr-Glu-Pip-Ile-Pro-Glu-Glu-Ala-Cha-D-Glu-OH], which “Fibrin Clot Inhibition” value is on record?
A: 1.9
